Consider one substance from US6383733B1, “Methods of screening for pharmacologically active compounds for the treatment of tumour diseases” (Boehringer Ingelheim International GmbH, priority 1996, dated 2002).

In experiment [1] the test system is EpRas cells. Nature of the experiment: EF conversion of EpRas cells in collagen type I gels. Format: cell-based, mouse. As to the method:
(§1) Semiconfluent cultures of the cells to be analysed were trypsinised and adjusted to a final concentration of 4×10^4 cells per ml with ice-cold growth medium. Equal volumes of the cell suspension and an acidified solution of rat's tail collagen type 1 (Sigma) were mixed at 4° C., applied to 35 mm tissue culture dishes and incubated for 30 min at 37° C., in order to allow the solution to set to a gel. To allow the cells to form organotypical structures, the collagen gels were covered with a serum-free medium (MEGM; Promocel) containing bovine pituary extract (BPE), recombinant epidermal growth factor (EGF), hydrocortisone and insulin (in the concentrations recommended by the manufacturer). Where stated, 5 or 10% FCS or 5 ng/ml recombinant TGFβ1 (literature) were added. The medium covering the collagen gels was changed every two days. In order to neutralise the TGFβ1 produced by the cells or cell structures in the collagen gels a monoclonal antibody against TGFβ1 (Genzyme) or control antibody is used in concentrations of up to 50 μg/ml.
In order to identify the mechanism underlying the EF conversion, an experimental system was used with which EF conversion can be induced in vitro under defined and physiologically relevant conditions. For this purpose normal EpH4 cells or Ras-transformed subclones of these cells (Ep-Ras clones) were grown in reconstituted collagen type I gels, using serum-free medium. These conditions made it possible to add defined polypeptide growth factors and hormones which are known to be involved in the modulation of the epithelial phenotype. In gels of this kind, normal EpH4 cells developed into organ-like gland channels (tubuli) which frequently terminated in club-shaped hollow swellings. These structures looked very similar to the end buds of the developing mammary gland which are formed by primary breast epithelial cells both in collagen gels and also in vivo (FIG. 3A). These structures could be induced to produce milk proteins efficiently by the addition of lactogenic hormones. […]

Experiment [2] has as its system EpH4 cells. Nature of the experiment: In vitro morphogenesis and apoptosis of normal EpH4 cells in collagen gels. It is filed as cell-based, mouse. The procedure:
as §1
Since the TGFβ-super-family of polypeptide factors is involved primarily in morphogenetic processes during embryo development, the role of TGFβ1 in normal mammary gland development was also examined within the scope of the present invention. For this purpose normal breast epithelial cells of the cell line EpH4 were sown in serum-free collagen gels. Unlike in the experiments in Example 3, the serum needed during sowing for the collagen gel to set and washed out one day later was specially selected for a low content of TGFβ1. […] Thus, these structures bore some resemblance to the end buds of the developing mammary gland.

For experiment [3], the system named is EpRas cells. Description: Chicken embryo heart invasion assay with EpRas cells. It is filed as cell-based, mouse. To be noted: 7 days co-cultivation with heart fragments. The procedure:
This assay was carried out as described by Behrens et al., 1993. In order to be able to distinguish invasive donor cells clearly from chicken heart cells, the test cells were charged with a vital fluorescent dye before examination. For this the cells were incubated for 1 hour in a glucose-containing Hanks saline solution containing […] 5,6-carboxy-2′,7′-dichlorofluorescein diacetate-succinimidyl ester (Molecular Probes) and 0.2×10^−6 M Pluronic F127. In this way the fluorescent dye is covalently bound to intracellular proteins without affecting the viability or behaviour of the cells, determined by various differentiation and proliferation assays. The labelled cells were grown for 24 hours at high density, scraped off the plastic dish and brought into contact with pre-cultivated heart fragments of 9 day old chicken embryos on the surface of a soft agar layer. After 7 days' cultivation the fragments with the adhering cells were collected, flash-frozen in liquid nitrogen, frozen sections were prepared, fixed in methanol/acetone and the fluorescent cells were determined by epifluorescence microscopy (Axiophot, Zeiss).

Experiment [4] deals with EpRas cells. Nature of the experiment: Semi-quantitative PCR for TGFβ1-mRNA in cells grown in collagen gels. The note with it: EpRas clones, 5 ng/ml TGFβ1, five days in collagen gels. It is filed as cell-based, mouse. The procedure:
Total RNA from cells, grown on plastic, in collagen gels or from tumours, was isolated and processed for the semi-quantitative PCR. A TGFβ1-specific fragment was amplified by means of RT-PCR under semi-quantitative conditions, using -actin primers as the internal control, as described by Leonard et al., 1993. For this the DNA was denatured at 94° C. for 1 min, the primers were annealed at 65° C. for 1 min, and the polymerase reactions were continued at 72° C. for 1 min. The amplification was continued for 20 and 30 cycles. The TGFβ1-specific primers TGGACCGCAA CAACGCCATC TATCCAGAAAA CC (forward) and TGGAGCTGAAGCAATAGTTGGTATCCAGGGCT (reverse) (Clontech Inc.) were used. The results of the PCR were quantitatively evaluated on an Image Quant Phospho-Imager. The values were standardised on the control product (-actin) and subsequently correlated with the value from control-3T3-fibroblast.
Finally the amounts of TGFβ1-mRNA expressed in the cells and the TGFβ1 -protein released into the culture medium were determined. Three different EpRas clones as well as the parental EpH4 clone were grown for five days in collagen gels. […] At the protein level essentially the same results were obtained when serum-free culture supernatants were analysed by ELISA and Western blot (FIG. 7B).

The subject of experiment [5] is EpRas cells. Description: TGFβ1-charged Slow Release Pellets coinjected with EpRas cells in mice. To be noted: 4 days after subcutaneous injection. Format: in vivo, mouse. The procedure:
(§2) In order to expose Ras-transformed breast epithelial cells to activated TGFβ1 very early in tumour development, TGFβ1 -charged Slow Release Elvax Pellets and either EpRas-epithelial cells or normal EpH4H cells were coinjected subcutaneously in mice. For control purposes pellets, charged only with BSA, were coinjected. The pellets were prepared and charged according to the manufacturer's instructions.
FIGS. 8E, F: Epithelial EpRas cells were injected subcutaneously into nude mice without (E) or together with 3-Elvax Slow Release Pellets charged with recombinant (active) TGFβ1 (F). Frozen sections obtained from 4 day old tumours were double-stained with antibodies against cytokeratin (red) and vimentin (green). What is noticeable is the dramatic migration of cells into the surrounding tissue induced in the vicinity of the TGFβ1 -releasing pellets (white circle).

Experiment [6] concerns EpH4 cells. Nature of the experiment: TGFβ1-charged Slow Release Pellets coinjected with EpH4 cells in mice. To be noted: mouse, in vivo. The procedure:
as §2

The subject of experiment [7] is PAI-1 promoter-reporter gene construct in CT26 cells. Nature of the experiment: Transient PAI-1 promoter-reporter gene (3TP-lux) luciferase assay. Format: cell-based, mouse. To be noted: TGFβ added for 24 hours. The procedure: A PAI-1 promoter-reporter construct (reporter gene was luciferase; 3TP-lux, Wrana et al., 1992) was transfected by lipofectamine transfection (Gibco) according to the manufacturer's instructions into CT26 cells or CT26-TβRII-dn cells. 8 hours after transfection TGFβ1 was added for 24 hours, while the controls were left without TGFβ. Then cell lysates were prepared and the luciferase activity was measured in a Berthold Clinilumat as described by Wrana et al., 1992. In order to determine the transfection efficiency all the cells were cotransfected with an CMV-β-Gal reporter gene construct and the luciferase activities obtained were standardised by the β-Gal fluorescence intensity and by the protein concentration of the extract (Bradford).
CT26-control cells (CT26 controls) and 5 clones of CT26−TβRII-dn cells (CT26TβRII-dn 1-5) were transfected with a PAI-1 promoter-reporter gene construct (3TP-lux), the cells were stimulated with TGFβ (+TGFβ) or left unstimulated (−TGFβ) and the luciferase activity was measured in cell extracts. […]
(In general: Reporter assays use an easily measured gene product as a stand-in for the process of interest.)

Take “TGFβ1: Transforming Growth Factor β1, recombinant polypeptide factor added to cells or charged in Slow Release Elvax Pellets”: in experiment [1] (TGFβ1 5 ng/ml), the “apoptosis / EFC of Ha-Ras-containing cells” value is “not induced into apoptosis and undergo EFC without exception”. The “growth and phenotype of EpRas cells in collagen gel” value in experiment [1] (TGFβ1 on its own, 5 ng/ml, serum-free collagen gel) is “causes EpRas cells to grow into invasive strings of cells similar to those induced by FCS”. Moreover, the “effect among growth factors added to EpRas cells in collagen gels” value in experiment [1] (compared with heregulin, scatter factor/HGF, acidic and basic FGF, PDGF) is “the only factor which showed striking and long-lasting effects on EpRas cells”. For the same substance, in experiment [2] (EpH4 cells in collagen gels), the “TGFβ1 concentration causing growth stop and apoptosis of normal epithelial cells” value was above 0.25 ng/mL. The “structures formed by EpH4 cells after transient TGFβ1” value in experiment [2] (TGFβ1 0.1 ng/ml until structures had formed, then washed out) is “formed well-shaped tubular structures with typical lumina”. For the same substance, the “structures formed by EpH4 cells” value in experiment [2] (TGFβ1 0.1 ng/ml, serum selected for low TGFβ1 content) was “able to proliferate and form atypical structures which generally lacked lumina”. Also, the “induction of EF conversion in non-tumorigenic control cells” value in experiment [2] (collagen gels) was “not able to induce EF conversion”. In experiment [3], the “invasivity of EpRas cells converted by TGFβ1 treatment” value is “capable of migrating efficiently into the heart fragments”. In addition, the “TGFβ1-mRNA produced by fibroblastoid cells induced by TGFβ1” value in experiment [4] is given as “produced quantities of TGFβ1-mRNA which were comparable with those of control fibroblasts”. For the same substance, the “phenotype and migration of EpRas cells close to a TGFβ1 pellet” value in experiment [5] was “converted into irregularly shaped cells just 4 days after the injection and exhibited extensive migration into the surrounding host tissue”. Also, the “phenotype of EpH4 cells close to TGFβ1 pellets” value in experiment [6] is given as “could not noticeably influence the phenotype of these non-tumorigenic cells”. Moreover, the “reporter gene transcription in CT26 control cells” value in experiment [7] is listed as “activates the reporter gene transcription to levels which are attained in the positive controls”.
